# Assay results reported in patent US20100009920A1, “TTK AS TUMOR MARKER AND THERAPEUTIC TARGET FOR LUNG CANCER” (priority 2006, published 2010).
# “Also recorded” adds a separate entry of the source. Like-named read-outs stand apart in the source and are kept apart here.
# What was measured:
# Assay type in all cases: cell-based, human
# TTK = TTK protein level in A549 cells after RNAi (western blot)
# Procedure: (§1) Cells were lysed with RIPA buffer [50 mM Tris-HCl (pH 8.0), 150 mM NaCl, 1% NP-40, 0.5% deoxychorate-Na, 0.1% SDS] containing Protease Inhibitor Cocktail Set III (CALBIOCHEM) and phosphatase inhibitor (1 mM sodium fluoride, 1 mM sodium orthovanadate, 2 mM imidazole, 4 mM sodium tartrate). Cytoplasmic and nuclear extractions were isolated by NE-PER Nuclear and Cytoplasmic Extraction Reagents (PIERCE). Protein samples were separated by SDS-polyacrylamide gels and electroblotted onto Hybond-ECL nitrocellulose membranes (GE Healthcare Bio-sciences). […] Antigen-antibody complexes were detected using secondary antibodies conjugated to horseradish peroxidase (GE Healthcare Bio-sciences). […]
# PLCγ1 and p44/42 MAPK = assay: Western blot of PLCγ and p44/42 MAPK in A549 cells after RNAi
# Procedure: (§2) Cells were lysed with RIPA buffer [50 mM Tris-HCl (pH 8.0), 150 mM NaCl, 1% NP-40, 0.5% deoxychorate-Na, 0.1% SDS] containing Protease Inhibitor Cocktail Set III (CALBIOCHEM) and phosphatase inhibitor (1 mM sodium fluoride, 1 mM sodium orthovanadate, 2 mM imidazole, 4 mM sodium tartrate). Cytoplasmic and nuclear extractions were isolated by NE-PER Nuclear and Cytoplasmic Extraction Reagents (PIERCE). Protein samples were separated by SDS-polyacrylamide gels and electroblotted onto Hybond-ECL nitrocellulose membranes (GE Healthcare Bio-sciences). Blots were incubated with a mouse monoclonal anti-Mps1 (TTK) antibody (Upstate), rabbit polyclonal anti-phospho-EGFR antibodies (Tyr-845, Tyr-992, Tyr-1045, Tyr-1068, […], and Tyr-1173; Cell Signaling Technology, Inc.), a rabbit polyclonal anti-EGFR antibody (Cell Signaling Technology, Inc.), a rabbit polyclonal anti-phospho-PLCgamma1 (Tyr-771) antibody (Cell Signaling Technology, Inc.), a rabbit polyclonal anti-PLCgamma1 antibody (Cell Signaling Technology, Inc.), a rabbit polyclonal anti-phospho-p44/42 MAPK (Thr202/Tyr204) antibody (Cell Signaling Technology, Inc.), a rabbit polyclonal anti-p44/42 MAPK antibody (Cell Signaling Technology, Inc.), a mouse monoclonal anti-Flag antibody (SIGMA) or a mouse monoclonal anti-beta-actin antibody (SIGMA). Anti-phospho-EGFR (Ser-967) antibodies were raised against Ser-967-phosphorylated synthetic peptides and purified with the phosphopeptide column. Antigen-antibody complexes were detected using secondary antibodies conjugated to horseradish peroxidase (GE Healthcare Bio-sciences). Protein bands were visualized by ECL Western Blotting Detection Reagents (GE Healthcare Bio-sciences).
# (§3) The oligo-siRNAs (Dharmacon, Inc., Lafayette, Colo.) ([…]) were transfected into appropriate lung-cancer cell lines using 30 micro-1 of Lipofectamine 2000 (Invitrogen, Carlsbad, Calif.) following the manufacturer's protocol. The ribonucleotide sequences corresponding to following sequences were used as the oligo-siRNA.
# phospho-EGFR (Ser-967) = assay: Phospho-EGFR (Ser-967) level in A549 cells after RNAi (immunofluorescence)
# Procedure: as §1
# Cultured cells were fixed with 4% paraformaldehyde solution for 15 min at 37° C., or 10% Trichloro acetic acid for 15 min on ice. […] Images were viewed and assessed using a confocal microscope at wavelengths of 488, 594 nm (TCS SP2 AOBS: Leica Microsystems). […]
# A549 cells = assay: Microscopic observation of cell morphology (phase contrast images); settings: non-treated cells as control
# Procedure: as §3
# The endogenous association between TTK and EGFR in lung cancer cells was also investigated by immunoprecipitaion experiment using extracts from A549 cells, and the interaction between these two proteins regardless the EGF-stimulation was detected (FIG. 4b). To further examine the relevance of TTK to EGFR signaling, TTK or EGFR function in A549 cells were suppressed and cell morphology was microscopically observed.
# phospho-EGFR (Tyr-992) = assay: Phospho-EGFR (Tyr-992) level in A549 cells after RNAi (immunofluorescence, western blot); settings: for phosphorylation level of EGFR Tyr-992, western blot: A549 cells; for phospho-EGFR (Tyr-992), immunofluorescence: serum-starved A549 cells
# Procedure: as §2
# Cultured cells were fixed with 4% paraformaldehyde solution for 15 min at 37° C., or 10% Trichloro acetic acid for 15 min on ice. Fixed cells were incubated in PBS(−) containing 0.1% Triton X-100 for 10 min and subsequently washed with PBS(−). Prior to the primary antibody reaction, fixed cells were covered with CAS-BLOCK (ZYMED Laboratories Inc.) for 10 min to block non-specific-antibody binding. Then the cells were incubated with a mouse monoclonal anti-Mps1 (TTK) antibody (Upstate) and a rabbit polyclonal anti-phospho-EGFR (Tyr-992) (Cell Signaling Technology, Inc.), or a rabbit polyclonal anti-phospho-p44/42 MAPK (Thr202/Tyr204) antibody (Cell Signaling Technology, Inc.), or a mouse monoclonal anti-Flag antibody (SIGMA). Antibodies were stained with an anti-mouse secondary antibody conjugated to Alexa Fluor 488 (Molecular Probes) and an anti-rabbit secondary antibody conjugated to Alexa Fluor 594 (Molecular Probes). […] Images were viewed and assessed using a confocal microscope at wavelengths of 488, 594 nm (TCS SP2 AOBS: Leica Microsystems). […]
# [1] = listed as RNAi (oligo) against TTK
sequence,measurement,setting,value
"CAAGATGTGTTAAAGTGTTTT (listed as DNA, chemistry not given here) [RNAi-TTK (oligo)]",TTK protein,TTK,Reduction; also recorded: suppression
same,amount of PLCγ protein,PLCγ1 and p44/42 MAPK,did not affect
same,amount of p44/42 MAPK protein,PLCγ1 and p44/42 MAPK,did not affect
same,phospho-PLCγ (Tyr-771),PLCγ1 and p44/42 MAPK,decrease
same,phosphorylation of p44/42 MAPK (Thr202/Tyr204),PLCγ1 and p44/42 MAPK,decrease
same,phospho-PLCγ (Tyr-771),PLCγ1 and p44/42 MAPK; [1],reduced
same,phosphorylation of p44/42 MAPK (Thr202/Tyr204),PLCγ1 and p44/42 MAPK; [1],reduced
same,"levels of phospho-EGFR Ser-967, immunofluorescence",phospho-EGFR (Ser-967),decreased significantly
same,"levels of phospho-EGFR Ser-967, immunofluorescence",phospho-EGFR (Ser-967); [1],reduced
same,cell morphology,A549 cells,became much larger with multiple nuclei
same,"phosphorylation level of EGFR Tyr-992, western blot",phospho-EGFR (Tyr-992),decreased
same,"phosphorylation level of EGFR Tyr-992, western blot",phospho-EGFR (Tyr-992); [1],reduced
same,"phospho-EGFR (Tyr-992), immunofluorescence",phospho-EGFR (Tyr-992),significantly decreased
same,"phospho-EGFR (Tyr-992), immunofluorescence",phospho-EGFR (Tyr-992); listed as si-TTK,reduced
